Numbers after ± are expanded uncertainties.
Experiment: xn = mol fraction of the nth substance listed
Conditions: 100 kPa, Liquid

CCOS(=O)(=O)[O-].CC[NH+]=C(N(C)C)N(C)C [2-ethyl-1,1,3,3-tetramethylguanidinium ethyl sulfate] + CCO
Conditions	mass density [kg/m3]	viscosity [mPa·s]
293.15 K, x1 = 0.0998	910.21 ± 0.35	2.824 ± 0.11
293.15 K, x1 = 0.2003	984.3 ± 0.24	5.826 ± 0.23
293.15 K, x1 = 0.3006	1033.78 ± 0.3	11.42 ± 0.46
293.15 K, x1 = 0.4016	1069.61 ± 0.43	22.83 ± 0.92
293.15 K, x1 = 0.498	1095.76 ± 0.56	40.88 ± 1.7
293.15 K, x1 = 0.5996	1117.54 ± 0.72	73.39 ± 4.9
293.15 K, x1 = 0.6976	1134.51 ± 0.88	127.4 ± 21
293.15 K, x1 = 0.7969	1148.58 ± 1.1	213.6 ± 54
293.15 K, x1 = 0.9008	1160.83 ± 1.3	385.6 ± 140
293.15 K, x1 = 1	1170.76 ± 1.5	673.4 ± 300
298.15 K, x1 = 0.0998	906.2 ± 0.35	2.546 ± 0.1
298.15 K, x1 = 0.2003	980.34 ± 0.25	5.136 ± 0.21
298.15 K, x1 = 0.3006	1030 ± 0.3	9.821 ± 0.4
298.15 K, x1 = 0.4016	1065.96 ± 0.42	19.07 ± 0.77
298.15 K, x1 = 0.498	1092.12 ± 0.55	33.16 ± 1.3
298.15 K, x1 = 0.5996	1113.91 ± 0.71	57.2 ± 1.4
298.15 K, x1 = 0.6976	1130.91 ± 0.87	95.44 ± 11
298.15 K, x1 = 0.7969	1145.02 ± 1.1	154 ± 30
298.15 K, x1 = 0.9008	1157.3 ± 1.3	264.4 ± 77
298.15 K, x1 = 1	1167.24 ± 1.5	441.5 ± 170
303.15 K, x1 = 0.0998	902.18 ± 0.36	2.307 ± 0.093
303.15 K, x1 = 0.2003	976.55 ± 0.25	4.559 ± 0.18
303.15 K, x1 = 0.3006	1026.22 ± 0.29	8.524 ± 0.34
303.15 K, x1 = 0.4016	1062.27 ± 0.42	16.15 ± 0.65
303.15 K, x1 = 0.498	1088.47 ± 0.55	27.11 ± 1.1
303.15 K, x1 = 0.5996	1110.31 ± 0.7	45.41 ± 1.8
303.15 K, x1 = 0.6976	1127.33 ± 0.86	73.08 ± 4.8
303.15 K, x1 = 0.7969	1141.46 ± 1	114.2 ± 16
303.15 K, x1 = 0.9008	1153.79 ± 1.2	187.9 ± 43
303.15 K, x1 = 1	1163.76 ± 1.5	302.5 ± 95
308.15 K, x1 = 0.0998	898.18 ± 0.36	2.096 ± 0.084
308.15 K, x1 = 0.2003	972.66 ± 0.26	4.072 ± 0.16
308.15 K, x1 = 0.3006	1022.45 ± 0.29	7.459 ± 0.3
308.15 K, x1 = 0.4016	1058.6 ± 0.41	13.81 ± 0.56
308.15 K, x1 = 0.498	1084.84 ± 0.54	22.56 ± 0.91
308.15 K, x1 = 0.5996	1106.73 ± 0.69	36.71 ± 1.5
308.15 K, x1 = 0.6976	1123.77 ± 0.85	57.39 ± 1.4
308.15 K, x1 = 0.7969	1137.92 ± 1	86.55 ± 8.3
308.15 K, x1 = 0.9008	1150.29 ± 1.2	134.9 ± 23
308.15 K, x1 = 1	1160.28 ± 1.5	214.6 ± 54
313.15 K, x1 = 0.0998	894.15 ± 0.37	1.91 ± 0.077
313.15 K, x1 = 0.2003	968.7 ± 0.26	3.656 ± 0.15
313.15 K, x1 = 0.3006	1018.66 ± 0.28	6.577 ± 0.27
313.15 K, x1 = 0.4016	1054.91 ± 0.4	11.92 ± 0.48
313.15 K, x1 = 0.498	1081.22 ± 0.53	19.04 ± 0.77
313.15 K, x1 = 0.5996	1103.16 ± 0.68	30.14 ± 1.2
313.15 K, x1 = 0.6976	1120.23 ± 0.84	45.97 ± 1.9
313.15 K, x1 = 0.7969	1134.39 ± 1	67.31 ± 3.5
313.15 K, x1 = 0.9008	1146.78 ± 1.2	103.7 ± 13
313.15 K, x1 = 1	1156.8 ± 1.4	157.2 ± 31
318.15 K, x1 = 0.0998	890.12 ± 0.37	1.746 ± 0.07
318.15 K, x1 = 0.2003	964.81 ± 0.27	3.298 ± 0.13
318.15 K, x1 = 0.3006	1014.86 ± 0.27	5.839 ± 0.23
318.15 K, x1 = 0.4016	1051.24 ± 0.4	10.38 ± 0.42
318.15 K, x1 = 0.498	1077.62 ± 0.52	16.26 ± 0.66
318.15 K, x1 = 0.5996	1099.62 ± 0.67	25.65 ± 1
318.15 K, x1 = 0.6976	1116.66 ± 0.83	37.27 ± 1.5
318.15 K, x1 = 0.7969	1130.88 ± 1	53.38 ± 0.75
318.15 K, x1 = 0.9008	1143.26 ± 1.2	79.6 ± 6.5
318.15 K, x1 = 1	1153.33 ± 1.4	118.3 ± 18
323.15 K, x1 = 0.0998	886.07 ± 0.39	1.601 ± 0.065
323.15 K, x1 = 0.2003	960.91 ± 0.28	2.99 ± 0.12
323.15 K, x1 = 0.3006	1011.05 ± 0.27	5.215 ± 0.21
323.15 K, x1 = 0.4016	1047.55 ± 0.39	9.094 ± 0.37
323.15 K, x1 = 0.498	1074.02 ± 0.52	14.01 ± 0.57
323.15 K, x1 = 0.5996	1096.11 ± 0.67	21.2 ± 0.86
323.15 K, x1 = 0.6976	1113.14 ± 0.83	30.75 ± 1.3
323.15 K, x1 = 0.7969	1127.39 ± 1	43.06 ± 1.8
323.15 K, x1 = 0.9008	1139.76 ± 1.2	62.7 ± 2.5
323.15 K, x1 = 1	1149.87 ± 1.4	91.22 ± 9.6

From the NIST ThermoML archive (doi:10.1021/acs.jced.5b00259)
